row,melting point [°C],SMILES
1,147 to 148,COC(=O)c1ccc(O)c(-n2cccc2C=O)c1
2,230 to 234,Cc1cc(C)c(-c2nc(-c3ccc(O)cc3O)nc(-c3ccc(O)cc3O)n2)c(C)c1
3,286 to 287,O=C1CCC(=O)N1Cc1nc2sc3c(c2c(-c2ccc(O)cc2)c1Cl)CCNC3
4,146 to 147,O=C1NC(=O)C(Cc2ccc(OCCON3C(=O)c4ccccc4C3=O)cc2)S1 (stereo not given)
5,260 to 261,CCCc1nn(C)c2c(=O)[nH]c(Cc3ccc(NC=O)cc3)nc12
6,284 to 285,Cc1c(C(=O)O)ncc2[nH]c3ccc(C4CC=CCC4)cc3c12 (stereo not given)
7,157 to 158,CSc1nc(NCCC(C)C)c2ccnc-2[nH]1
8,65.5 to 67.5,C[C@@H]1COC2(CCCC2)N1C(=O)c1ccccc1
9,132,CCOC(=O)c1cnc2c(C(F)(F)F)cc(-c3ccc(C(F)(F)F)cc3)cn12
10,124 to 127,C#CCOc1ccc(-c2nc3ccccc3o2)cc1
11,164 to 165,CCC(Cn1cncn1)(C(N)=O)c1ccc(Cl)cc1Cl (stereo not given)
12,160,CC[C@@H](C(=O)O)n1ccc2ccc(Cl)cc2c1=O
13,215 to 217,CC1(C)Oc2ccc(C#N)cc2[C@@H](NC(=O)Nc2ccc3c(c2)CNC3)[C@@H]1O
14,58 to 60,CC(CCCC1(C(=O)NCC(F)(F)F)c2ccccc2-c2ccccc21)N1CCC(NC(=O)OC(C)(C)C)CC1 (stereo not given)
15,72 to 74,Cc1cccc(-c2n[nH]cc2-c2ccc(F)c(-c3ccc(O)cc3)c2)n1
16,196 to 198,CCOC(=O)C1CC2=C(CO1)C(=O)c1cc3ccccc3c(OC(C)=O)c1C2=O (stereo not given)
17,> 270,CCCn1c(=O)c2[nH]c(C3CCCC3)nc2n(CCc2ccc(NC(=O)CC)cc2)c1=O
18,201 to 202,CCn1nc(-c2ccccc2)c(-c2csc(-c3ccc(OC)cc3)n2)c(Nc2cccnc2)c1=O
19,82 to 85,CCCOC(=O)C1Oc2ccccc2Cc2ccccc2O1
20,194 to 195,O=C(O)c1cccc(-c2cccc3oc(Cc4ccc(F)c(F)c4)cc23)c1
21,271,Cc1cc(-c2cc(C(F)F)n3ncc(C(=O)Nc4nc(C)c(S(=O)(=O)NC(C)(C)CO)s4)c3n2)ccc1C(F)(F)F
22,187 to 194,CCn1cc(C(=O)O)c(=O)c2cc(F)c(N3CCC(N)C3)c(C)c21 (stereo not given)
23,203,O=C1c2cccc3cc4ccccc4c(c23)C(=O)N1CCNCCNCCN1C(=O)c2cccc3cc4ccccc4c(c23)C1=O
24,198 to 200,CC(=O)OC1CSC(Oc2ccc(-c3cccnc3C)nc2)C(OC(C)=O)C1OC(C)=O (stereo not given)

row,melting point [°C],SMILES
1,40 to 50,Cc1cc(CCC(=O)OCC(CO)(COC(=O)CCc2cc(C)c(O)c(C(C)(C)C)c2)COC(=O)CCc2cc(C)c(O)c(C(C)(C)C)c2)cc(C(C)(C)C)c1O
2,103 to 104,O=C(CCO)Nc1cccc(S)c1
3,104 to 110,O=C(c1ccccc1)c1cc2c(cc1O)C(CO)(C(=O)O)CC2 (stereo not given)
4,276 to 278,c1cc(NCC2CCCO2)c2cc3c(cc2n1)OCO3 (stereo not given)
5,199 to 200,COC(=O)c1cc(F)c(N2CCC(NC(C)=O)C2)nc1Nc1ccc(F)cc1F (stereo not given)
6,48 to 49,CCCCC(=O)Nc1ccc(Cl)cc1C(=O)OC
7,260 to 262,ClCc1ccc(-c2nnc3n2-c2cccnc2Nc2ccccc2-3)cc1
8,102 to 104,CCCCCCCC(=O)N(C)Cc1cccc(-c2ccc(C=CC(=O)O)s2)c1
9,116 to 119,CCc1nc2c(cnn2CC)c(NC2CCOCC2)c1CNC(=O)c1cccc(C(=O)NCc2ccc(OC)c(-c3cccc(CN4CCCN(C)CC4)c3)c2)c1
10,103 to 105,COc1cc2c(c(Cl)c1Cl)C(=O)C(CCCl)=C2
11,137 to 138,N#CCCNC(=O)c1cccc(-c2cccc3sc(Cc4cccc(C(F)(F)F)c4)cc23)c1
12,182 to 184,CNc1ccc(-c2[nH]cnc2-c2cc(OC)cc(OC)c2)cc1F
13,171 to 172,OCCN(CCO)c1cc(-c2ccccn2)nc(-c2ccccn2)c1
14,178 to 179,CN=C(NC#N)C1=CC(CF)(CF)Oc2ccc(C(F)(F)C(F)(F)F)cc21
15,116,Cc1cc(CNC(=O)c2cc(-c3ccc(C(C)(C)C)cc3)nn2CC(=O)c2ccccc2)ccc1OC(C)(C)C(=O)O
16,74 to 76,O=c1c(Cl)c(Cl)cnn1C1CCCCO1 (stereo not given)
17,190,Cc1cc2nc3ccccc3sc-2c(Br)c1=O
18,128 to 129,O=C(c1ccc(Br)cc1)N1CCN(c2ccncc2)CC1
19,125,COc1cc2cc(C#N)sc2cc1OC
20,119 to 120,CC1=c2cc(Br)ccc2=NC1=O
21,108,Fc1cc2c(cc1F)Sc1cc(F)c(F)cc1S2
22,162 to 166,O=C(NCCCn1ccnc1)c1ccccc1NS(=O)(=O)c1ccc(I)cc1
23,112 to 114,N#Cc1ccccc1N1CCN(CCC=C2c3ccccc3CCc3ccccc32)CC1
24,136 to 138,O=C(O)c1cccc2c1CCC2Cl (stereo not given)

row,melting point [°C],SMILES
1,188 to 189,CN(c1cccc2cc(C3=NCC(CN4CCS(=O)(=O)CC4)S3)[nH]c12)S(=O)(=O)c1ccccn1 (stereo not given)
2,205 to 206,O=C1c2ccccc2C(=O)N1CC(=O)N1c2ccccc2N(Cc2ccc(Cl)cc2)C(=O)[C@H]2CCC[C@H]21 (relative stereo)
3,184 to 185,Cc1nc(-n2cnn(CCCC(F)(F)F)c2=O)sc1C(=O)NCc1cccnc1
4,203 to 205,CC(=O)Nc1cccc2c1CC(=O)CC2
5,142 to 143,Cn1c(Cc2ccc(Cl)c(Oc3cc(C#N)cc(C#N)c3)c2F)nn(COC(=O)CCC(=O)O)c1=O
6,> 275,Nc1ccc2c(c1)CN1CC(=O)NC1=N2
7,350 to 354,Cc1cc2c(=O)n3cc(C(N)=O)ccc3nc2s1
8,75 to 77,COC(=O)c1cc(I)cc2c(=O)cc[nH]c12
9,193 to 194,Clc1ccc(OCc2ccnc3ncnn23)cc1
10,109,Fc1cccc(F)c1COCc1nc2ccccc2n1Cc1c(F)cccc1F
11,137 to 142,COc1ccc(CBr)cc1S(=O)(=O)NC(C)(C)C
12,61 to 64,COc1cc(C(=O)C=Cc2ccccc2)ccc1O
13,148 to 156,O=C(O)CCn1c(=O)c(=O)[nH]c2cc([N+](=O)[O-])ccc21
14,70 to 72,CCOC(=O)c1cnc(Cl)c([N+](=O)[O-])c1NC
15,118 to 120,O=C1CCCN1c1cccc2cccnc12
16,114 to 118,CCOc1ccc(-n2c(N)cc(=O)nc2Nc2ccccc2)cc1
17,281,O=C1c2ccc(NC(=O)C3CCCC3)cc2C(=O)c2cc(NC(=O)C3CCCC3)ccc21
18,186 to 187,CNC1(c2ccccc2Cl)C(=O)Nc2ccc(C)cc21 (stereo not given)
19,126 to 128,CCCCN(Cc1ccc2cc(O)ccc2c1)C(=O)c1c(C)oc2ccccc12
20,174 to 176,COc1ccc(C(O)c2ccccn2)c(Cl)c1Cl (stereo not given)
21,84 to 86,COCOc1cc(OC)c(OC)cc1C#Cc1ccc(OC)c(OC)c1
22,149 to 154,O=S1(=O)c2ccccc2NC2CCCN21 (stereo not given)
23,153 to 157,NC(=S)c1c(F)cccc1Cl
24,124 to 125,COc1cc2ccc(-c3ccccc3)cc2cc1SC

row,melting point [°C],SMILES
1,31.5 to 35,CCCCCCCCCCCCc1cc(CBr)on1
2,228 to 230,O=C(O)CCN1CCN(c2cccc(C(F)(F)F)c2)CC1
3,155 to 156,CC(=O)NCC1CC(c2ccc(-n3ccnc3)c(F)c2)=NO1 (stereo not given)
4,194 to 196,COc1cc2cnnc(N3CCC4(CC3)OCCCO4)c2cc1OC
5,139 to 140,CN(C)C(=O)COc1cc(Cl)ccc1C(=O)NCCN1CCN(C(=O)OC(C)(C)C)CC1
6,99 to 100,CCCCCCCCCCCCCCCCCCS(=O)(=O)N[C@H]1CCCNC(=O)C1
7,47 to 49,CC(=O)C=Cc1cccc(N(C)C)c1
8,249 to 250,CS(=O)(=O)c1ccccc1S(N)(=O)=O
9,266 to 268,Cc1noc(-c2cccc(C3=Nc4ccc(-c5ccc(F)cc5)cc4NC(=O)C3)c2)n1
10,291 to 292,O=C(CN1CCOCC1)Nc1ccc(-c2n[nH]c3c2Cc2ccccc2-3)cc1
11,92 to 93,CCCCc1c(C(=O)OCC)sc2ccc([N+](=O)[O-])cc12
12,210 to 213,O=C(Nc1cccc2c1CC(O)CC2)c1ccc(-c2ccc(F)c(F)c2)cc1 (stereo not given)
13,270 to 275,O=C1CCC(c2ccc3[nH]c(-c4ccccc4)cc3c2)=NN1
14,161 to 163,COc1ccc(N2CCN(c3c(C)c(C)c4c(c3C)CC(C)(CC#N)O4)CC2)cc1 (stereo not given)
15,45 to 47,CCOC(=O)CCCCn1cnc2ccncc21
16,45 to 48,CC(C)CCCC(O)(Cn1cncn1)C(C)(C)C (stereo not given)
17,69.1,CCCCCCOc1ccc2nc(-c3ccc(COC(CCCCCC)C(F)(F)F)cc3)sc2c1 (stereo not given)
18,117 to 118,COc1cc(OCc2nc(-c3ccco3)oc2C)ccc1CO
19,323,Cc1cc(-c2ccc(C(F)(F)F)cc2)nc(-n2cnc(-c3ccc(S(N)(=O)=O)cc3)c2)n1
20,88 to 90,CCN1C(=O)c2ccc(C)cc2Oc2ncccc21
21,190,COC(=O)c1ccc(NC(=O)C(CC(=O)O)c2ccccc2)cc1 (stereo not given)

row,SMILES,melting point [°C]
1,Cc1cccc([C@@H]2C[C@H]3C=C(c4c[nH]c(-c5ccc(F)cc5)c4-c4ccncc4)CCN3C2)c1,204 to 206
2,Cc1cc(C2=NOC(c3cc(Cl)cc(Cl)c3)(C(F)(F)F)C2)ccc1C(=O)NCC(N)=O (stereo not given),87 to 91
3,CCCCc1cc2c3c(c[nH]c3c1)CC1C2CC(NC(=O)c2ccccc2)CN1C (stereo not given),143 to 145
4,Cc1c(C2CCC(c3ccccc3)(N(C)C)CC2)n(CC(O)CN(C)C)c2ccccc12 (stereo not given),54 to 57
5,CN1CC=C(c2cc3cc(Cl)ccc3o2)CC1,108 to 118
6,CC1(Cl)CSC2C(NC(=O)Cc3ccccc3)C(=O)N2C1C(=O)OCc1ccc([N+](=O)[O-])cc1 (stereo not given),134 to 136
7,Cc1cccc(C)c1OP(=O)(c1ccccc1)c1cc(O)ccc1O (stereo not given),172
